Experimental data taken from patent US5644025A, “Tetrapeptides deriving from dalbaheptide antibiotics” (Gruppo Lepetit SPA, priority 1990, dated 1997).
Values after ≈ are worked out from the molar mass of the structure shown.

What was measured:
Experiment in all cases: in vitro antibacterial activity, MIC by dilution test in microtiter
[1] = tested on: S. epidermidis clin. isol.; assay type: cell-based; details: strain L 533; Iso-Sensitest broth, inoculum about 5×10^5 cfu/ml, 0.01% bovine serum albumin, 37° C., 18-24 hours
Procedure: (§1) The in vitro antibacterial activity of the compounds is determined by means of standard […] tests in microtiter. Iso-Sensitest broth (Oxoid) is used for all bacteria except streptococci (Todd-Wewitt broth, Difco) and enterococci (Mueller-Hinton, Difco). Broth cultures are diluted so that the final inoculum is about 5×10^5 cfu/ml (colony forming units per ml). All broth microdilution MICs are performed in the presence of 0.01% bovine serum albumin (Pentax fraction V, Sigma).

S. aureus Smith = assay type: cell-based; details: strain L 819; Iso-Sensitest broth, inoculum about 5×10^5 cfu/ml, 0.01% bovine serum albumin, 37° C., 18-24 hours
Procedure: as §1

Strep. pyogenes C203 = assay type: cell-based; details: strain L 49; Todd-Wewitt broth, inoculum about 5×10^5 cfu/ml, 0.01% bovine serum albumin, 37° C., 18-24 hours
Procedure: as §1

[2] = tested on: S. epidermidis ATCC 12,228; assay type: cell-based; details: strain L 147; Iso-Sensitest broth, inoculum about 5×10^5 cfu/ml, 0.01% bovine serum albumin, 37° C., 18-24 hours
Procedure: as §1

[3] = tested on: S. haemolyticus clin, isol.; assay type: cell-based; details: strain L 602; Iso-Sensitest broth, inoculum about 5×10^5 cfu/ml, 0.01% bovine serum albumin, 37° C., 18-24 hours
Procedure: as §1

Staph. aureus Tour = assay type: cell-based; details: strain L 165; Iso-Sensitest broth, inoculum about 5×10^5 cfu/ml, 0.01% bovine serum albumin, 37° C., 18-24 hours
Procedure: as §1

S. aureus clin. isol. = assay type: cell-based; details: strain L 561; Iso-Sensitest broth, inoculum about 5×10^5 cfu/ml, 0.01% bovine serum albumin, 37° C., 18-24 hours
Procedure: as §1

Strep. pneumoniae UC41 = assay type: cell-based; details: strain L 44; Todd-Wewitt broth, inoculum about 5×10^5 cfu/ml, 0.01% bovine serum albumin, 37° C., 18-24 hours
Procedure: as §1

[4] = tested on: Enterococcus faecalis ATCC 7,080; assay type: cell-based; details: strain L 149; Mueller-Hinton broth, inoculum about 5×10^5 cfu/ml, 0.01% bovine serum albumin, 37° C., 18-24 hours
Procedure: as §1

E. faecalis clin. isol. = assay type: cell-based, Enterococcus faecalis; details: for MIC: strain L 502, Mueller-Hinton broth, inoculum about 5×10^5 cfu/ml, 0.01% bovine serum albumin, 37° C., 18-24 hours
Procedure: as §1

| Molecule | MIC [1] [mg/L] | MIC (S. aureus Smith) [mg/L] | MIC (Strep. pyogenes C203) [mg/L] | MIC [2] [mg/L] | MIC [3] [mg/L] | MIC (Staph. aureus Tour) [mg/L] | MIC (S. aureus clin. isol.) [mg/L] | MIC (Strep. pneumoniae UC41) [mg/L] | MIC [4] [mg/L] | activity against a clinical isolate of Enterococcus faecalis (in words) (E. faecalis clin. isol.) | MIC (E. faecalis clin. isol.) [mg/L] |
| --- | --- | --- | --- | --- | --- | --- | --- | --- | --- | --- | --- |
| N[C@H]1C(=O)N[C@@H]2Cc3ccc(c(Cl)c3)Oc3cc4cc(c3O)Oc3ccc(cc3Cl)[C@@H](O)[C@@H]3NC(=O)[C@H](NC(=O)[C@@H]4NC(=O)[C@@H](NC2=O)c2cc(O)cc(c2)Oc2cc1ccc2O)c1ccc(O)c(c1)-c1c(O)cc(O)cc1[C@@H](C(=O)O)NC3=O [teicoplanin aglycon] | 0.016 (≈ 0.0133 µM) | 0.06 (≈ 0.05 µM) | 0.13 (≈ 0.108 µM) | 0.06 (≈ 0.05 µM) | 0.25 (≈ 0.209 µM) | 0.13 (≈ 0.108 µM) | 0.13 (≈ 0.108 µM) | 0.13 (≈ 0.108 µM) | 0.13 (≈ 0.108 µM) | resistant | > 128 |
| (L-phenylalanyl)^3 -(D-lysyl)^15 -aglucoteicoplanin dalbaheptide methyl ester | 0.13 | 0.13 | 0.25 | 0.13 | 0.5 | 0.13 | 0.06 | 0.13 | 0.5 | surprisingly active | 16 |
| teicoplanin | 8 | 0.25 | 0.13 | 8 | 32 | 0.13 | 8 | 0.13 | 0.13 | resistant | > 128 |
